According to PMC10059905, “The Bioactivity of Xylene, Pyridine, and Pyrazole Aza Macrocycles against Three Representative Leishmania Species” (Pharmaceutics, 2023):
Where two headings read alike, the source gives them in different places.

Experiments:
Format in all cases: cell-based
[1] = test system: J774.2 macrophage cell line; experiment: Macrophage cytotoxicity; details: J774.2 macrophages, means of three separate experiments, read-out: Macrophage Toxicity IC50
From the text: Macrophages are cells naturally infected by Leishmania parasites. For that reason, they were used as host cell models, specifically the J774.2 macrophage cell line [European Collection of Authenticated Cell Cultures (ECACC) number 91051511]. Cells were used to test the cytotoxicity of the new compound (establishing IC50 via testing different drug concentrations on cells) and they were used for parasite infectivity assays.

L. braziliensis [2] = experiment: Infectivity assay in J774.2 macrophages; details: test dosage IC25, 10 days
From the text: Following a similar method as the described one in the amastigote experiment, macrophages were harvested and infected with promastigotes in their stationary phase. The test dosage was IC25 for this experiment. The coverslips were collected every 2 days for 10 days and counted in order to determine if drugs affected promastigote infection and amastigote division within the cells by measuring the infection rate (percentage of infected cells) and amastigote number per infected cell.

[3] = test system: L. braziliensis amastigote forms; experiment: In vitro activity against amastigote forms in J774.2 macrophages; details: for Selectivity Index Amastigote Forms: J774.2 Macrophage IC50/Parasite IC50; for IC50: in J774.2 macrophages, means of three separate experiments, read-out: Compound IC50 Amastigote Forms
Description: (§1) A similar method was used for the amastigote assay. First, J774.2 macrophages were harvested in 24-well microplates with round coverslips at the bottom, where cells will attach. Once cells are fixated, they are infected with promastigotes (10 per each macrophage cell) and compounds were added to reach the same final concentrations as in the previous experiment. After one day, promastigotes transform into amastigotes and microplates are maintained for two days at 37 °C. Once that time is elapsed, coverslips are collected and fixated to a microscope slide and dyed with Giemsa. Amastigotes are then counted using a microscope from a total of 200 random macrophages.

[4] = test system: L. infantum amastigote forms; experiment: as above; details: for Selectivity Index Amastigote Forms: J774.2 Macrophage IC50/Parasite IC50; for IC50: in J774.2 macrophages, means of three separate experiments, read-out: Compound IC50 Amastigote Forms
Description: as §1

[5] = test system: L. braziliensis promastigote forms; experiment: In vitro activity against promastigote forms; details: for Selectivity Index Promastigote Forms: J774.2 Macrophage IC50/Parasite IC50; for IC50: 48 h, 27 °C, means of three separate experiments, read-out: Compound IC50 Promastigote Forms
Description: (§2) Three Leishmania species were studied, each one as a pathogenic agent for each clinical form: L. donovani for VL, L. infantum for CL, and L. braziliensis for ML.
(§3) In order to perform this experiment, promastigotes were harvested in 24-well microplates and different drug concentrations were added in order to reach 12.5, 25, 50, and 100 µM and maintained at 27 °C for 48 h. They were counted after that time was elapsed in a Neubauer haemocytrometric chamber.

[6] = test system: L. donovani promastigote forms; experiment: In vitro activity against promastigote forms; details: for Selectivity Index Promastigote Forms: J774.2 Macrophage IC50/Parasite IC50; for IC50: 48 h, 27 °C, means of three separated experiments, read-out: Compound IC50 Promastigote Forms
Description: as §2, §3

[7] = test system: L. infantum promastigote forms; experiment: In vitro activity against promastigote forms; details: for Selectivity Index Promastigote Forms: J774.2 Macrophage IC50/Parasite IC50; for IC50: 48 h, 27 °C, means of three separate experiments, read-out: Compound IC50 Promastigote Forms
Description: as §2, §3

L. braziliensis [8] = experiment: Metabolite excretion (1H-NMR of supernatants); details: IC25, 72 h, vs untreated
From the text: (§4) Active compounds can trigger metabolic alterations within parasite mitochondria. Those alterations can be proven by observing alterations in the excreted metabolites quantity. Trypanosomatids excrete different metabolites to the medium in order to get rid of the carbonate skeleton instead of oxidizing glucose to CO2 and water as vertebrates do. Each metabolite is produced in a certain area of the mitochondrion and by a certain enzyme, thus, it can be inferred that these particular zones or enzymes are being affected by drug action. For this experiment, cultures of each species with an initial concentration of 5 × 10^5 cells/mL were stored at 27 °C for 72 h with IC25 as the test dosage. After this time elapsed, cultures were centrifuged at 400× g for 10 min and supernatants were collected and examined by ^1H-NMR.

L. infantum = experiment: Metabolite excretion (1H-NMR of supernatants); details: IC25, 72 h, vs untreated
From the text: as §4

[9] = test system: L. donovani amastigote forms; experiment: In vitro activity against amastigote forms in J774.2 macrophages; details: for Selectivity Index Amastigote Forms: J774.2 Macrophage IC50/Parasite IC50; for IC50: in J774.2 macrophages, means of three separated experiments, read-out: Compound IC50 Amastigote Forms
Description: as §1

L. donovani = experiment: Metabolite excretion (1H-NMR of supernatants); details: IC25, 72 h, vs untreated
From the text: as §4

Compound: c1c2n[nH]c1CNCCNCCCNCCNC2 [PZ232]
- IC50 ([1]; Mus musculus): 674 ± 66.3 µM
- Amastigote number/infected cell, percentage in plot key (reduction vs control) (L. braziliensis [2]): 32.4%
- Selectivity Index Amastigote Forms [3]: 421
- IC50 ([3]; Leishmania braziliensis): 1.6 ± 0.6 µM
- Selectivity Index Amastigote Forms [4]: 138
- IC50 ([4]; Leishmania infantum): 4.9 ± 0.4 µM
- Selectivity Index Promastigote Forms [5]: 116
- IC50 ([5]; Leishmania braziliensis): 5.8 ± 0.2 µM
- Selectivity Index Promastigote Forms [6]: 27
- IC50 ([6]; Leishmania donovani): 25 ± 0.8 µM
- Selectivity Index Promastigote Forms [7]: 52
- IC50 ([7]; Leishmania infantum): 13 ± 0.4 µM
- Acetate production and excretion variation (L. braziliensis [8]): -38.64%
- D-lactate production and excretion variation (L. braziliensis [8]): -38.98%
- L-alanine production and excretion variation (L. braziliensis [8]): -37.91%
- Pyruvate production and excretion variation (L. braziliensis [8]): -35.69%
- Succinate production and excretion variation (L. braziliensis [8]): -37.83%
- Acetate production and excretion variation (L. infantum): -11.80%
- D-lactate production and excretion variation (L. infantum): -11.58%
- L-alanine production and excretion variation (L. infantum): -13.15%
- Pyruvate production and excretion variation (L. infantum): -14.03%
- Succinate production and excretion variation (L. infantum): -16.36%

Compound: c1c2n[nH]c1CNCCCNCCCNCCCNC2 [PZ333]
- IC50 ([1]; Mus musculus): 985 ± 72.8 µM
- Selectivity Index Amastigote Forms [9]: 579
- IC50 ([9]; Leishmania donovani): 1.7 ± 0.5 µM
- Selectivity Index Promastigote Forms [5]: 63
- IC50 ([5]; Leishmania braziliensis): 15.7 ± 0.5 µM
- Selectivity Index Promastigote Forms [6]: 704
- IC50 ([6]; Leishmania donovani): 1.4 ± 0.3 µM
- Selectivity Index Promastigote Forms [7]: 14
- IC50 ([7]; Leishmania infantum): 70 ± 0.7 µM
- Acetate production and excretion variation (L. donovani): 33.66%
- D-lactate production and excretion variation (L. donovani): 29.85%
- L-alanine production and excretion variation (L. donovani): 32.65%
- Pyruvate production and excretion variation (L. donovani): 37.88%
- Succinate production and excretion variation (L. donovani): 42.10%

Compound: c1cc2nc(c1)CNCCCNCCCCNC2 [Py34]
- IC50 ([1]; Mus musculus): 569 ± 45.8 µM
- Selectivity Index Promastigote Forms [5]: 19
- IC50 ([5]; Leishmania braziliensis): 29.2 ± 0.8 µM
- Selectivity Index Promastigote Forms [6]: 20
- IC50 ([6]; Leishmania donovani): 28.4 ± 0.6 µM
- Selectivity Index Promastigote Forms [7]: 10
- IC50 ([7]; Leishmania infantum): 56.7 ± 2.6 µM

Compound: c1cc2nc(c1)CNCCCNCCCNCCCNC2 [Py333]
- IC50 ([1]; Mus musculus): 310 ± 43.8 µM
- Selectivity Index Amastigote Forms [9]: 18
- IC50 ([9]; Leishmania donovani): 16.8 ± 0.5 µM
- Selectivity Index Promastigote Forms [5]: 12
- IC50 ([5]; Leishmania braziliensis): 26.2 ± 1.1 µM
- Selectivity Index Promastigote Forms [6]: 1549
- IC50 ([6]; Leishmania donovani): 0.2 µM
- Selectivity Index Promastigote Forms [7]: 10
- IC50 ([7]; Leishmania infantum): 30.4 ± 1.4 µM

Compound: c1cc2nc(c1)CNCCCNCCNCCNCCCNC2 [Py3223]
- IC50 ([1]; Mus musculus): 165 ± 4.9 µM
- Selectivity Index Promastigote Forms [5]: 1
- IC50 ([5]; Leishmania braziliensis): 291 ± 3.8 µM
- Selectivity Index Promastigote Forms [6]: 3
- IC50 ([6]; Leishmania donovani): 52.5 ± 2.1 µM
- Selectivity Index Promastigote Forms [7]: 1
- IC50 ([7]; Leishmania infantum): 192 ± 5.8 µM

Compound: c1cc2nc(c1)CNCCCNCCNCCNCCNCCCNC2 [Py32223]
- IC50 ([1]; Mus musculus): 57.7 ± 1.9 µM
- IC50 ([5]; Leishmania braziliensis): 442 ± 5.8 µM
- IC50 ([6]; Leishmania donovani): 1000 ± 78.4 µM
- Selectivity Index Promastigote Forms [7]: 1
- IC50 ([7]; Leishmania infantum): 93.4 ± 3.7 µM

Compound: c1cc2nc(c1)CNCCCNCCNCCCNCCNCCCNC2 [Py32323]
- IC50 ([1]; Mus musculus): 85.4 ± 4.6 µM
- IC50 ([5]; Leishmania braziliensis): 1630 ± 76.4 µM
- Selectivity Index Promastigote Forms [6]: 1
- IC50 ([6]; Leishmania donovani): 130 ± 9.5 µM
- Selectivity Index Promastigote Forms [7]: 1
- IC50 ([7]; Leishmania infantum): 90.6 ± 3.8 µM

Compound: c1cc2nc(c1)CNCCCNCCCNCCNCCCNCCCNC2 [Py33233]
- IC50 ([1]; Mus musculus): 1290 ± 77.5 µM
- Selectivity Index Promastigote Forms [5]: 3
- IC50 ([5]; Leishmania braziliensis): 507 ± 8.3 µM
- Selectivity Index Promastigote Forms [6]: 2
- IC50 ([6]; Leishmania donovani): 583 ± 6.9 µM
- Selectivity Index Promastigote Forms [7]: 3
- IC50 ([7]; Leishmania infantum): 484 ± 10.7 µM

Compound: c1cc2cc(c1)CNCCNCCCNCCNC2 [mB232]
- IC50 ([1]; Mus musculus): 667 ± 88.5 µM
- Selectivity Index Promastigote Forms [5]: 7
- IC50 ([5]; Leishmania braziliensis): 91.7 ± 3.7 µM
- Selectivity Index Promastigote Forms [6]: 4
- IC50 ([6]; Leishmania donovani): 171 ± 10.4 µM
- Selectivity Index Promastigote Forms [7]: 3
- IC50 ([7]; Leishmania infantum): 205 ± 30.7 µM

Compound: c1cc2cc(c1)CNCCCNCCNCCCNC2 [mB323, 3,7,10,14 Tetraaza-1(2,6)-benzenacyclopentadecaphane]
- IC50 ([1]; Mus musculus): 428 ± 22.6 µM
- Selectivity Index Amastigote Forms [3]: 25
- IC50 ([3]; Leishmania braziliensis): 17.1 ± 1.1 µM
- Selectivity Index Promastigote Forms [5]: 186
- IC50 ([5]; Leishmania braziliensis): 2.3 ± 0.5 µM
- Selectivity Index Promastigote Forms [6]: 3
- IC50 ([6]; Leishmania donovani): 158 ± 7.3 µM
- Selectivity Index Promastigote Forms [7]: 4
- IC50 ([7]; Leishmania infantum): 95.6 ± 4.8 µM

Compound: c1cc2cc(c1)CNCCCNCCCNCCCNC2 [mB333, 3,7,11,15 Tetraaza-1(2,6)-benzenacyclohexadecaphane]
- IC50 ([1]; Mus musculus): 916 ± 51.6 µM
- Selectivity Index Promastigote Forms [5]: 4
- IC50 ([5]; Leishmania braziliensis): 210 ± 5.3 µM
- Selectivity Index Promastigote Forms [6]: 9
- IC50 ([6]; Leishmania donovani): 106 ± 7.5 µM
- Selectivity Index Promastigote Forms [7]: 11
- IC50 ([7]; Leishmania infantum): 86.1 ± 3.7 µM

Compound: c1cc2cc(c1)CNCCCNCCNCCNCCCNC2 [mB3223]
- IC50 ([1]; Mus musculus): 1450 ± 89.7 µM
- Selectivity Index Promastigote Forms [5]: 93
- IC50 ([5]; Leishmania braziliensis): 15.6 ± 0.7 µM
- Selectivity Index Promastigote Forms [6]: 11
- IC50 ([6]; Leishmania donovani): 126 ± 3.8 µM
- Selectivity Index Promastigote Forms [7]: 23
- IC50 ([7]; Leishmania infantum): 63.4 ± 2.4 µM

Compound: c1cc2ccc1CNCCNCCCNCCNC2 [pB232]
- IC50 ([1]; Mus musculus): 719 ± 20.5 µM
- Selectivity Index Promastigote Forms [5]: 26
- IC50 ([5]; Leishmania braziliensis): 27.2 ± 0.9 µM
- Selectivity Index Promastigote Forms [6]: 1
- IC50 ([6]; Leishmania donovani): 743 ± 23.6 µM
- Selectivity Index Promastigote Forms [7]: 2
- IC50 ([7]; Leishmania infantum): 367 ± 10.5 µM

Compound: Glucantime [reference compound]
- IC50 [1]: 176 ± 10.6 µM
- Selectivity Index Amastigote Forms [9]: 2
- IC50 [9]: 76.4 ± 4.1 µM
- Selectivity Index Amastigote Forms [3]: 1.7
- IC50 [3]: 103 µM
- Selectivity Index Amastigote Forms [4]: 2
- IC50 [4]: 84.6 ± 4.3 µM
- IC50 [5]: 51.4 ± 2.5 µM
- Selectivity Index Promastigote Forms [5]: 3
- IC50 [6]: 23.7 ± 0.8 µM
- Selectivity Index Promastigote Forms [6]: 7
- IC50 [7]: 50.1 ± 2.3 µM
- Selectivity Index Promastigote Forms [7]: 3.5
